The values below come from patent publication US10156564B1, “Methods of detecting biomarkers of endoplasmic reticulum (ER) stress-associated kidney diseases” (Washington University, priority 2016, dated 2018).

“Also recorded” adds a separate entry of the source.

The subject of one series is mouse primary podocytes. Put plainly: CRELD2 expression in mouse primary podocytes treated with ER stress inducers (WB, immunofluorescence). In kind it is cell-based. To be noted: for CRELD2 immunofluorescence in podocytes: TM 2 μg/ml or TG 1 μM for 24 h, overlapped with BiP; for CRELD2 expression in cell lysates (WB): TM 2 μg/ml or TG 1 μM for 24 h vs DMSO vehicle. As to the method:
FIG. 9A is an image of a Western blot showing mouse primary podocytes were treated with DMSO (control), tunicamycin (TM) (2 μg/ml) or thapsigargin (TG) (1 μM) for 24 h. Cell lysates were analyzed by WB with the indicated antibodies. TM and TG are ER stress inducers.
FIG. 9B is a series of images showing control and TM- or TG-treated mouse podocytes, as described in FIG. 9A stained for CRELD2 (red) and BiP (green). Nuclei were counterstained with Hoechst 33342 (blue). Scale bar, 40 μm.
CRELD2 is a urinary biomarker for detecting podocyte ER stress in the early stages of podocyte ER stress-induced nephrotic syndrome (NS) in mice. Initial experiments (see e.g., Example 2) determined ER stress increases CRELD2 expression and secretion in mouse primary podocytes. Mouse podocytes were treated for 24 h with tunicamycin (TM), which activates ER stress by blocking N-linked glycosylation in the ER (26), or TG, which depletes ER calcium through inhibition of ER calcium ATPase (27). […] The effects of ER stress on CRELD2 secretion were also examined.
Isolated glomeruli from Lamb2^+/−, Lamb2^−/−; Tg-C321R and Lamb2^−/−; Tg-WT mice at P27 were suspended in DMEM/Ham's F-12 (2:1) that contained 0.45 μm-filtered 3T3-L1 supernatant, 5% heat inactivated FBS, ITS (Insulin-Transferrin-Sodium Selenite) liquid media supplement, and 100 U/ml penicillin-streptomycin; plated onto collagen type I-coated petri dishes; and incubated at 37° C. in room air with 5% CO2. After 3 days, cell colonies began to sprout around the glomeruli. […] Only passages 1-2 podocytes from the indicated genotypes were used in the in vitro studies.
For immunocytochemistry, mouse primary podocytes were seeded on cover slips coated with 5 μg/ml rat collagen I that was dissolved in 0.02M acetic acid in 24 well plates for 48 hours. After 24 hours treatment with DMSO, TM or TG, the cells were fixed with 4% PFA for 20 minutes and permeabilized with 1% Triton X-100 for 5 minutes at room temperature, blocked with 1% BSA for 30 minutes at room temperature, followed by incubation with goat anti-mouse CRELD2 (R&D) and rabbit anti-mouse BiP antibodies for an additional 1 hour at room temperature. The cover slips were washed with PBS and incubated with the corresponding Alexa 594- or Alexa 488-conjugated secondary antibodies and Hoechst 33342 to stain nuclei. The cover slips were then mounted with anti-quench solution and visualized using a fluorescence microscope (Nikon).
Isolated mouse glomeruli and cultured mouse primary podocytes were lysed by RIPA buffer (Sigma) containing protease inhibitor cocktail (Roche, Indianapolis, Ind.). TM untreated- and treated-kidneys, as well as sham-operated and I/R-injured kidneys, were extracted using the same lysis buffer with the protease inhibitors and homogenized by sonication. The protein concentrations of cell, glomerular and kidney lysates were determined by Bio-Rad protein assay (Hercules, Calif.) using BSA as a standard. Denatured proteins were separated on SDS polyacrylamide gel electrophoresis (SDS-PAGE) and then transferred to PVDF membranes. Blots were blocked with 5% non-fat milk for 1 hour and then incubated overnight with primary antibodies. The membranes were washed with Tris-buffered saline/TWEEN® (polysorbate) buffer and incubated with the appropriate HRP-conjugated secondary antibodies. […] Relative intensities of protein bands were quantified using ImageJ (NIH) analysis software.

In series [1] the test system is C57BL/6J mice. Put plainly: TM-induced AKI mouse model (kidney and urine CRELD2/BiP, histology). In kind it is in vivo. Conditions: for BiP in ER stressed-tubular cells (immunofluorescence): 1 day and 5 days post TM injection (FIG. 19); for urinary CRELD2 excretion (WB): urine within 24 hours after TM 1 mg/kg IP vs vehicle; for BiP in urine (immunodetection): within 24 hr from TM injection, no obvious histological changes of kidney injury (FIG. 20). How it is done: FIG. 10A is a bar graph showing quantitative RT-PCR analysis of relative transcript levels of CRELD2 in kidneys at the indicated time points following TM injection (1 mg/kg, IP) as compared to DMSO vehicle-injected controls. Absolute levels were normalized first to those of GAPDH and then to the levels in the control kidneys (mean±SD). **P<0.01 and ***P<0.001 by ANOVA (n=3 mice per group).
FIG. 10B is a series of images showing dual IF staining for CRELD2 (green) and LTL (red) on paraformaldehyde-fixed, sucrose-cryoprotected kidney sections from mice treated with vehicle or TM (1 mg/kg) at the indicated time points. Nuclei were counterstained with Hoechst 33342 (blue). G: glomerulus. Scale bars, 40 μm.
FIG. 10C is a Western blot showing whole-kidney lysates from mice treated with or without TM (1 mg/kg) at different time points were analyzed by WB for levels of CRELD2 and β-actin.
FIG. 10E is an image of a Western blot showing the detection of urinary CRELD2 within 1 day of TM injection. Urines were collected for 24 hours after the mice were injected with vehicle or 1 mg/kg TM (IP). Crude urine samples from mice treated with vehicle (n=8) or TM (n=8) were analyzed by WB for CRELD2 excretion. The urinary CRELD2 excretion was normalized to 2 μg of urine Cr excretion.
Intraperitoneal (IP) injection of TM in mice is a well characterized AKI model caused by renal proximal tubular ER stress (29). […] In comparison, glomeruli and other organs are spared (21, 29).
TM was dissolved in DMSO at 2 mg/ml, and injected intraperitoneally at 1 mg/kg into 6-10 weeks old C57BL/6J mice. Urine was collected from metabolic cages in which the mice were immediately placed after the injection. 1 day or 5 days after the injection, sera were obtained, and kidneys were harvested. One kidney was snap frozen in dry ice and stored at −70 C until further processing for protein and RNA. The other kidney was fixed in 4% paraformaldehyde (PFA) (pH 7.4) at 4 C and then transferred to 15% and 30% sucrose/PBS for OCT-embedded cryosections.
For dual staining of CRELD2 with biotinylated LTL in mouse kidneys, […]. After dewaxing, PFA-fixed, sucrose-cryoprotected kidney sections from control or TM-treated mice were subjected to antigen retrieval by immersion in 10 mM citric acid buffer (pH 6.0) for 5 minutes at 95 C. […] Nonspecific avidin binding was blocked by an avidin/biotin blocking kit (Vector laboratories) before incubating kidney sections with 1% BSA for 30 minutes at room temperature. The slides were stained with a goat anti-mouse CRELD2 antibody (R&D) together with biotinylated LTL overnight at 4° C., followed by an Alexa 488-conjugated anti-goat secondary antibody and Alexa 594-conjugated streptavidin as well as Hoechst 33342. For CRELD2 staining in sham-operated and post-ischemic kidneys, the fluorescent signal was further amplified using a Fluorescein tyramide amplification kit (Perkin-Elmer, Waltham, Mass.) according to the manufacturer's instructions. Slides were analyzed under a fluorescence microscope (Nikon).
Isolated mouse glomeruli and cultured mouse primary podocytes were lysed by RIPA buffer (Sigma) containing protease inhibitor cocktail (Roche, Indianapolis, Ind.). TM untreated- and treated-kidneys, as well as sham-operated and I/R-injured kidneys, were extracted using the same lysis buffer with the protease inhibitors and homogenized by sonication. The protein concentrations of cell, glomerular and kidney lysates were determined by Bio-Rad protein assay (Hercules, Calif.) using BSA as a standard. Denatured proteins were separated on SDS polyacrylamide gel electrophoresis (SDS-PAGE) and then transferred to PVDF membranes. Blots were blocked with 5% non-fat milk for 1 hour and then incubated overnight with primary antibodies. The membranes were washed with Tris-buffered saline/TWEEN® (polysorbate) buffer and incubated with the appropriate HRP-conjugated secondary antibodies. […]

The test system of series [2] is C57BL/6J mice. Conditions: cited from earlier work.

As to tunicamycin [TM], in the series with mouse primary podocytes, the “CRELD2 immunofluorescence in podocytes” value is reported as “upregulated” and the “CRELD2 expression in cell lysates (WB)” value is reported as “induced expression of CRELD2”. Also, in the series on mouse primary podocytes (TM 2 μg/ml, 24 h), the “form of CRELD2 expressed (WB)” value is recorded as “underglycosylated form of CRELD2”. The “CRELD2 in ER-stressed proximal tubular cells (marked by LTL)” value with C57BL/6J mice [1] (1 day and 5 days post TM injection (FIG. 4)) was “upregulated”. Further, in the series on C57BL/6J mice [1], the “BiP in ER stressed-tubular cells (immunofluorescence)” value was “upregulated”, the “urinary CRELD2 excretion (WB)” value is listed as “can be detected; also recorded: dramatically increased” and the “BiP in urine (immunodetection)” value is “detected”. Besides, in the series with C57BL/6J mice [1] (listed as tunicamycin), the “BiP in ER stressed-tubular cells (immunofluorescence)” value is listed as “upregulation”, the “urinary CRELD2 excretion (WB)” value is listed as “immunodetection of CRELD2 in the urine” and the “BiP in urine (immunodetection)” value is “immunodetection of BiP in urine”. Moreover, the “CRELD2 immunostaining in proximal tubules (co-IF with LTL)” value with C57BL/6J mice [1] (5 days post-injection, TM 1 mg/kg IP) is reported as “subsided”. Further, the “CRELD2 induction in glomeruli (IF)” value in the series with C57BL/6J mice [1] (TM-injected kidneys, 1 mg/kg IP) is reported as “did not exhibit CRELD2 induction”. Besides, in the series with C57BL/6J mice [1] (TM-injected mice (FIG. 18)), the “BiP in kidney lysates (immunodetection)” value is “induced”. Also, the “CRELD2 in kidney lysates (immunodetection)” value with C57BL/6J mice [1] (TM-injected mice, time not stated (FIG. 3)) is “induced”. Moreover, the “CRELD2 transcript levels in whole-kidney lysates (RT-PCR)” value in the series on C57BL/6J mice [1] (day 1 after TM 1 mg/kg IP vs DMSO vehicle or day 5) is on record as “significantly increased”. In the series with C57BL/6J mice [1] (day 1 following TM 1 mg/kg IP vs controls), the “CRELD2 immunostaining in proximal tubules (co-IF with LTL)” value is on record as “substantially upregulated”. The “CRELD2 protein expression in kidneys (WB)” value in the series with C57BL/6J mice [1] (day 1 vs controls or day 5 post-injection, TM 1 mg/kg IP) is “higher”. In the series with C57BL/6J mice [2] (day 1 after TM injection), the “ER stress response genes including BiP, CHOP, MANF and EDEM” value is recorded as “upregulated”; the “renal function and histology” value is “normal renal function and the absence of conspicuous histologic changes”. Also, the “renal histology after IP injection of TM” value in the series on C57BL/6J mice [2] (peaks between 4 and 5 days after injection, glomeruli and other organs spared) was “extensive tubular dilation, epithelial flattening, tubular basement membrane denudation and loss of brush borders in proximal tubules”.
Turning to `C/C=C(/C)C(=O)O[C@H]1C(C)=C2[C@H]([C@@H]1OC(=O)CCCCCCC)[C@@](C)(OC(C)=O)C[C@H](OC(=O)CCC)[C@@]1(O)[C@H]2OC(=O)[C@@]1(C)O` [TG, thapsigargin], in the series with mouse primary podocytes, the “CRELD2 immunofluorescence in podocytes” value is recorded as “upregulated” and the “CRELD2 expression in cell lysates (WB)” value is “induced expression of CRELD2”.
